Experimental findings from PMC7531004, “Discovery of gramicidin A analogues with altered activities by multidimensional screening of a one-bead-one-compound library” (Nature Communications, 2020) are described below.

The nature of series [1]: H+/Na+ transport assay of bead-derived peptides (one-point).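 Note: relative to parent gramicidin A activity set to 1.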 It is filed as biochemical. Details: key: relative activity; mean of two control wells = 1.00. As to conditions: bead-derived peptide solution, EYPC/EYPG LUVs. The method in brief:
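Values are normalized fluorescence, with Triton X-100 defining 100% and untreated LUVs 0%, and the two control wells averaging 1.00. Vesicles carried 1.0 mM pyranine and included egg yolk phosphatidylglycerol. Peptides were incubated with them 30 min at room temperature.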

Series [2] relates to P388 mouse leukemia cells. As to conditions: 92 h. The method in brief: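 Peptide stocks diluted 250× in growth medium; P388 cells 1 × 10^4 cells/mL final; 37 °C, 5% CO2, 92 h. WST-1 + 1-methoxy PMS, 4 h, A415. Output: % viability.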
Series [3] concerns Streptococcus pyogenes SSI-9. Put plainly: Antibacterial activity assay of bead-derived peptides (three concentrations). It is filed as cell-based. Details: key: +++: inhibition by the 640-fold diluted peptide solution; ++: inhibition by the 160-fold diluted solution; +: inhibition by the 40-fold diluted solution; -: no inhibition. As to conditions: S. pyogenes, bead-derived peptide solution, three concentrations. The method in brief:
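First, each peptide stock was diluted 4- and 16-fold in DMSO; next, the three solutions were mixed with S. pyogenes SSI-9 suspension (2 × 10^5 CFU) in cation-adjusted Mueller Hinton Broth plus 5% laked horse blood; finally, plates stood 18 h at 37 °C before checking for grown-cell precipitation.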

SMILES strings stand for the structures. Where a SMILES comes first, the peptide text is derived from it. [ ]: non-standard residue; d: D form. The star is where a group is joined. NHCH2CH2OH = OCCN*; For = O=C*

Take `CNC(=O)C[C@@H](NC(=O)[C@@H](NC(=O)[C@H](NC(=O)[C@H](C)NC(=O)[C@@H](CC(C)C)NC(=O)[C@H](C)NC(=O)CNC(=O)[C@@H](NC=O)C(C)C)C(C)C)C(C)C)C(=O)N[C@@H](Cc1c[nH]c2ccccc12)C(=O)N[C@@H](C(=O)N[C@@H](Cc1c[nH]c2ccccc12)C(=O)N[C@H](CC(C)C)C(=O)N[C@@H](Cc1c[nH]c2ccccc12)C(=O)N[C@@H](C(=O)N[C@@H](Cc1c[nH]c2ccccc12)C(=O)NCCO)C(C)C)C(C)C` [compound 5185] (For-VGA[dL]A[dV]V[dD](NHMe)W[dV]W[dL]W[dV]W-NHCH2CH2OH): in series [1], the “H+/Na+ transport activity normalized against the value of 1 (1.00)” value (“H+/Na+ transport activity normalized” for short) worked out at 1.40. This molecule had a cell viability/% in series [2] of 100.0%. The antibacterial activity result in series [3] is recorded as “-”.

As to `CC(C)[C@H](NC=O)C(=O)NCC(=O)N[C@@H](C)C(=O)N[C@@H](C(=O)N[C@@H](C)C(=O)N[C@@H](C(=O)N[C@H](C(=O)N[C@@H](C(=O)N[C@@H](Cc1c[nH]c2ccccc12)C(=O)N[C@@H](C(=O)N[C@@H](Cc1c[nH]c2ccccc12)C(=O)N[C@@H](C(=O)N[C@@H](Cc1c[nH]c2ccccc12)C(=O)N[C@@H](C(=O)N[C@@H](Cc1c[nH]c2ccccc12)C(=O)NCCO)C(C)C)C(C)C)[C@H](C)O)C(C)C)C(C)C)C(C)C)C(C)C` [compound 5205] (For-VGA[dV]A[dV]V[dV]W[dT]W[dV]W[dV]W-NHCH2CH2OH), in series [1], the “H+/Na+ transport activity normalized” value came to 1.22. The molecule further showed a cell viability/% in series [2] of 100.0%. Besides, the antibacterial activity result in series [3] is listed as “-”.

`CC(C)C[C@@H](NC(=O)[C@H](C)NC(=O)[C@H](NC(=O)[C@H](C)NC(=O)CNC(=O)[C@@H](NC=O)C(C)C)[C@H](C)O)C(=O)N[C@H](C(=O)N[C@H](CC(C)C)C(=O)N[C@@H](Cc1c[nH]c2ccccc12)C(=O)N[C@@H](C(=O)N[C@@H](Cc1c[nH]c2ccccc12)C(=O)N[C@H](CC(C)C)C(=O)N[C@@H](Cc1c[nH]c2ccccc12)C(=O)N[C@H](CC(C)C)C(=O)N[C@@H](Cc1c[nH]c2ccccc12)C(=O)NCCO)[C@H](C)O)C(C)C` [compound 5215] (For-VGA[dT]A[dL]V[dL]W[dT]W[dL]W[dL]W-NHCH2CH2OH): the “H+/Na+ transport activity normalized” value in series [1] stood at 1.33. The cell viability/% in series [2] was 100.0%. For the same molecule, the antibacterial activity result in series [3] is listed as “-”.

On to `CC(C)C[C@@H](NC(=O)[C@H](C)NC(=O)[C@H](NC(=O)[C@H](C)NC(=O)CNC(=O)[C@@H](NC=O)C(C)C)C(C)C)C(=O)N[C@H](C(=O)N[C@@H](C(=O)N[C@@H](Cc1c[nH]c2ccccc12)C(=O)N[C@H](CC(C)C)C(=O)N[C@@H](Cc1c[nH]c2ccccc12)C(=O)N[C@@H](C(=O)N[C@@H](Cc1c[nH]c2ccccc12)C(=O)N[C@H](CC(C)C)C(=O)N[C@@H](Cc1c[nH]c2ccccc12)C(=O)NCCO)C(C)C)C(C)C)C(C)C` [compound 5241] (For-VGA[dV]A[dL]V[dV]W[dL]W[dV]W[dL]W-NHCH2CH2OH), for which, in series [1], the “H+/Na+ transport activity normalized” value amounted to 1.39. In series [2], this molecule came in with a cell viability/% of 12.2%. Also, in series [3], the antibacterial activity entry was “++”.

As to `CNC(=O)C[C@@H](NC(=O)[C@H](Cc1c[nH]c2ccccc12)NC(=O)[C@@H](CC(C)C)NC(=O)[C@H](Cc1c[nH]c2ccccc12)NC(=O)[C@H](NC(=O)[C@H](Cc1c[nH]c2ccccc12)NC(=O)[C@@H](CC(C)C)NC(=O)[C@@H](NC(=O)[C@H](NC(=O)[C@H](C)NC(=O)[C@@H](CC(C)C)NC(=O)[C@H](C)NC(=O)CNC(=O)[C@@H](NC=O)C(C)C)C(C)C)C(C)C)C(C)C)C(=O)N[C@@H](Cc1c[nH]c2ccccc12)C(=O)NCCO` [compound 5302] (For-VGA[dL]A[dV]V[dL]W[dV]W[dL]W[dD](NHMe)W-NHCH2CH2OH), the “H+/Na+ transport activity normalized” value in series [1] stood at 1.37. Also, in series [2], the cell viability/% turned out to be 100.0%. In addition, in series [3], the antibacterial activity result was “-”.

For the molecule `CC(C)C[C@@H](NC(=O)[C@H](Cc1c[nH]c2ccccc12)NC(=O)[C@@H](CC(C)C)NC(=O)[C@@H](NC(=O)[C@H](NC(=O)[C@H](C)NC(=O)[C@H](NC(=O)[C@H](C)NC(=O)CNC(=O)[C@@H](NC=O)C(C)C)C(C)C)C(C)C)C(C)C)C(=O)N[C@@H](Cc1c[nH]c2ccccc12)C(=O)N[C@@H](C(=O)N[C@@H](Cc1c[nH]c2ccccc12)C(=O)N[C@@H](C(=O)N[C@@H](Cc1c[nH]c2ccccc12)C(=O)NCCO)C(C)C)[C@H](C)O` [compound 5311] (For-VGA[dV]A[dV]V[dL]W[dL]W[dT]W[dV]W-NHCH2CH2OH), the “H+/Na+ transport activity normalized” value in series [1] came to 1.15. In addition, in series [2], the cell viability/% was determined as 100.0%. Besides, the antibacterial activity entry in series [3] is “+”.

Turning to `CC(C)C[C@@H](NC(=O)[C@H](C)NC(=O)[C@H](NC(=O)[C@H](C)NC(=O)CNC(=O)[C@@H](NC=O)C(C)C)[C@H](C)O)C(=O)N[C@H](C(=O)N[C@H](CC(C)C)C(=O)N[C@@H](Cc1c[nH]c2ccccc12)C(=O)N[C@H](CC(C)C)C(=O)N[C@@H](Cc1c[nH]c2ccccc12)C(=O)N[C@@H](C(=O)N[C@@H](Cc1c[nH]c2ccccc12)C(=O)N[C@H](CC(C)C)C(=O)N[C@@H](Cc1c[nH]c2ccccc12)C(=O)NCCO)C(C)C)C(C)C` [compound 5329] (For-VGA[dT]A[dL]V[dL]W[dL]W[dV]W[dL]W-NHCH2CH2OH), the “H+/Na+ transport activity normalized” value in series [1] was found to be 1.26. This molecule also registered a cell viability/% in series [2] of 100.0%. The antibacterial activity entry in series [3] is listed as “-”.

Turning to `CC(C)C[C@@H](NC(=O)[C@H](C)NC(=O)[C@H](NC(=O)[C@H](C)NC(=O)CNC(=O)[C@@H](NC=O)C(C)C)C(C)C)C(=O)N[C@H](C(=O)N[C@H](CC(C)C)C(=O)N[C@@H](Cc1c[nH]c2ccccc12)C(=O)N[C@H](CC(C)C)C(=O)N[C@@H](Cc1c[nH]c2ccccc12)C(=O)N[C@@H](C(=O)N[C@@H](Cc1c[nH]c2ccccc12)C(=O)N[C@@H](C(=O)N[C@@H](Cc1c[nH]c2ccccc12)C(=O)NCCO)[C@H](C)O)C(C)C)C(C)C` [compound 5370] (For-VGA[dV]A[dL]V[dL]W[dL]W[dV]W[dT]W-NHCH2CH2OH), the “H+/Na+ transport activity normalized” value in series [1] stood at 1.18. The molecule further gave a cell viability/% in series [2] of 100.0%. Also, the antibacterial activity entry in series [3] is given as “++”.

Turning to `CNC(=O)C[C@@H](NC(=O)[C@H](Cc1c[nH]c2ccccc12)NC(=O)[C@@H](CC(C)C)NC(=O)[C@@H](NC(=O)[C@@H](CC(C)C)NC(=O)[C@H](C)NC(=O)[C@H](NC(=O)[C@H](C)NC(=O)CNC(=O)[C@@H](NC=O)C(C)C)C(C)C)C(C)C)C(=O)N[C@@H](Cc1c[nH]c2ccccc12)C(=O)N[C@@H](C(=O)N[C@@H](Cc1c[nH]c2ccccc12)C(=O)N[C@@H](C(=O)N[C@@H](Cc1c[nH]c2ccccc12)C(=O)NCCO)C(C)C)C(C)C` [compound 5380] (For-VGA[dV]A[dL]V[dL]W[dD](NHMe)W[dV]W[dV]W-NHCH2CH2OH), the “H+/Na+ transport activity normalized” value in series [1] is reported as 1.05. This molecule also showed a cell viability/% in series [2] of 100.0%. In series [3], the antibacterial activity result is given as “-”.
